“Also recorded” adds a separate entry of the source. Marks after values point to notes of the source that are not given here.
Tests used:
[1] = tested on: spatial memory in male C57BL/6NCrl mice; test: Object Location Task (OLT), 24-hour retention interval; format: in vivo; settings: for d2 index, discrimination index between the new and familiar objects for T2: given 3 hours after T1, T2 after 24 h, mean (SEM)
Excerpt: The objective of this study was to evaluate the cognitive improvement effects of Roflumilast on spatial memory employing Object Location Task (OLT) in male C57BL/6NCrl mice. Roflumilast was compared with data of the already established PDE4 inhibitor Rolipram in the same model.
Maintenance of Animals Twenty-four 7 month-old male C57BL/6NCrl mice (Charles River, L'Arbresle, France) were used (average body weights: 27.6 g). The animals were kept under a 12/12-hour light/dark cycle (lights on from 07.00 pm to 07.00 am) with free access to food and water. All testing was done between 09.00 am and maximally 06.00 pm.
Preparation of Compounds for Administration Both rolipram (Sigma-Aldrich St. Louis, USA; MW 275.34) and roflumilast (Biocrea, Radebeul, Germany; MW 403.21) were dissolved in dimethylsulfoxide (DMSO) and kept at 4 ° C.; this stock solution was used for further dilutions in 0.5% methylcellulose. Each of rolipram and roflumilast is used in form of its free base. All injected solutions consisted of 0.5% methylcellulose with a fixed DMSO percentages (1.2%) (vehicle).
Object Location Task Studies in Rodents For the Object Location Task (OLT), doses of 0.01 mg/kg, 0.03 mg/kg and 0.1 mg/kg of Rolipram or Roflumilast or vehicle were administered subcutaneously (s.c.). Based on previous findings, PDE4 inhibitor single administration was performed 3 hours after the first trial as this has an optimum effect on object memory performance. The injection volume was 5 μl/g.
The OLT apparatus consisted of a circular arena, 40 cm in diameter. Half of the 40 cm transparent polyvinyl chloride wall was covered from the outside with white paper. Two objects were placed symmetrically about 10 cm away from the wall on the separation line, between the transparent and covered side of the arena. Four different sets of objects were available: (1) a cone made of brass (maximal diameter 6 cm and total height 3.8 cm), (2) a transparent glass bottle (diameter 2.7 cm, height 8.5 cm) filled with sand and water, (3) a massive metal cube (2.5 cm×5 cm×7.5 cm) with two holes (diameter 1.5 cm), and (4) a massive aluminum cube with a tapering top (4.5 cm×4.5 cm×8.5 cm).
A testing session comprised two trials of 4 minutes. Before each trial, mice were placed in an empty Makrolon cage (incubation cage) for the same amount of time as the trial (4 min). During the first trial (T1), two identical objects were placed symmetrically about 10 cm away from the wall on the separation line between the transparent and covered side of the arena. After the first exploration period of 4 min, the mouse was put back in its home cage. Mice then received treatment at 3 hours post T1. Subsequently, after a predetermined delay interval (24h), the mouse was placed in the apparatus for the second trial of 4 min (T2). Two identical objects as in T1 were used; one object was placed in the previously used position, whereas the other was placed in a novel position. The novel position of the object could either be a fixed distance towards the front or a fixed distance towards the back of the arena for both objects. The times spent exploring each object during T1 and T2 were recorded manually using a personal computer. All objects and locations were used in a balanced manner to exclude possible object and/or location preferences. To avoid olfactory cues, the objects were thoroughly cleaned with 70% ethanol after each trial. The testing order of conditions was determined randomly.
Statistical Data Analysis The measurements reflected the time spent by the mice in exploring each object during T1 and T2. The time spent in exploring the two identical samples in T1 were represented by ‘a1’ and ‘a2’, respectively. The time spent in exploring the sample and the new object in T2 were represented by ‘a’ and ‘b’, respectively. From these exploration times the following variables were calculated: e1, e2, and d2 (Table 1). The d2 index is a relative measure of discrimination corrected for exploratory activity. […]

[2] = tested on: xylazine/ketamine induced α2-adrenergic receptor-mediated anesthesia; test: xylazine/ketamine induced α2-adrenergic receptor-mediated anesthesia test (emetic potential); format: in vivo; settings: dose of 3.0 mg/kg
Excerpt: Since emesis is a typical side-effect of phosphodiesterase 4 inhibitors the emetic potential of roflumilast and rolipram was investigated in parallel using the xylazine/ketamine induced α2-adrenergic receptor-mediated anesthesia test. The results confirmed that the two phosphodiesterase 4 inhibitors have different effects on emesis.

Structure (SMILES): O=C(Nc1c(Cl)cncc1Cl)c1ccc(OC(F)F)c(OCC2CC2)c1 [roflumilast, N-(3,5-dichloropyridin-4-yl)-3-cyclopropylmethoxy-4-difluoromethoxybenzamide]
- d2 index, discrimination index between the new and familiar objects for T2 ([1]; 0.01 mg/kg s.c.): 0.04 (0.05)
- d2 index compared with the vehicle condition (post-hoc Bonferroni t-test) ([1]; 0.03 mg/kg s.c.): differed significantly from the vehicle condition
- d2 index, discrimination index between the new and familiar objects for T2 ([1]; 0.03 mg/kg s.c.): 0.34 (0.03) ###
- d2 index compared with zero (one-sample t-test) ([1]; 0.03 mg/kg s.c., after twenty-four hours): significantly differed from zero
- d2 index, discrimination index between the new and familiar objects for T2 ([1]; 0.1 mg/kg s.c.): 0.00 (0.06)
- effect on spatial memory measured by the object location task test ([1]; single subcutaneous administration of 0.01 mg/kg): nearly no effect
- effect on spatial memory measured by the object location task test ([1]; single subcutaneous administration of 0.03 mg/kg, 0.03 mg/kg): effective; also recorded: pronounced effect
- effect on spatial memory measured by the object location task test ([1]; single subcutaneous administration of 0.1 mg/kg): completely no effect
- emetic potential [2]: tendency towards emetic potential

— patent publication US10357486B2, “Treatment of cognitive impairment with PDE4 inhibitor” (Universiteit Maastricht, priority 2013, dated 2019)
